From patent US20090285796A1, “MUTANT JAK3 KINASE IN HUMAN LEUKEMIA” (CELL SIGNALING TECHNOLOGY, INC., priority 2006, published 2009)

Experiments:
[1] = system: human AML cell line (CMK); details: CMK cells expressing mutant (A572V) JAK3
Description: (§1) CP-690,550, which specifically binds to and blocks the ATP-binding site of JAK3 kinase, thereby preventing phosphorylation and activation of this enzyme, is commercially available and some of its properties have been described. See, e.g. Borne et al., Tranplantation 80 (12): 1756-1764 (2005); Paniagua et al., Tranplantation 80 (9): 1283-1292 (2005).

[2] = system: control cells that do not express the mutant JAK3 protein; details: control cells not expressing mutant JAK3
Description: as §1

CMK cells [3] = assay: CellTiter 96 AQueous One cell proliferation assay with JAK I; assay type: cell-based, human; details: seventy hours, increasing doses up to 2 micrograms/ml
Protocol: (§2) JAK I (Calbiochem, San Diego, Calif.) is a potent inhibitor of the JAK family of kinases, including JAK3. To confirm that JAK3 is driving the proliferation of CMK cells, the effect of JAK I on the growth and/or viability of CMK cells was examined. CMK and K562 cells (as a control) were treated for seventy hours with increasing doses of JAK I inhibitor up to 2 micrograms/ml. The number of viable cells was determined with the CellTiter 96 AQueous One solution cell proliferation assay (Promega). Apoptosis was measured with a fluorescent stain measuring annexin V.

CMK cells [4] = assay: Apoptosis by annexin V staining with JAK I; assay type: cell-based, human; details: increasing concentrations
Protocol: as §2

STAT5 = assay: Western blot of STAT5 phosphorylation after JAK I; assay type: cell-based, human; details: CMK cells, range of inhibitor concentrations
Protocol: AML-193, GDM-1, CMK, K562 and Ba/F3 cells were obtained from the German National Resource Centre for Biological Material (DSMZ). GF-D8 cells were generously provided by Dr. Orietta Spinelli, Laboratorio Paolo Belli, Bergamo, Italy. All cell lines were maintained in RPMI 1640 supplemented with 10% FCS, 1 unit/mL penicillin G, and 1 μg/mL streptomycin at 37° C. and 5% CO2. Western blotting was carried out according to standard methods, following the Western Blotting Protocol (Cell Signaling Technology, Inc., 2005-2006 Catalogue).
To further confirm the effect of the JAK I on the CMK cell line, Western blot analysis (as described above) was performed following exposure to a range of inhibitor concentrations, and the activity of the JAK3 downstream target, STAT5 examined (see FIG. 3C).

K562 cells = assay: CellTiter 96 AQueous One cell proliferation assay with JAK I, control cell line; assay type: cell-based; details: control cell line K562, seventy hours, up to 2 micrograms/ml
Protocol: as §2

SMILES: C[C@@H]1CCN(C(=O)CC#N)C[C@@H]1N(C)c1ncnc2[nH]ccc12 [CP-690,550]
- growth and survival [1]: selectively inhibited the growth and survival
- growth and survival [2]: not in control cells

SMILES: CC(C)(C)c1nc2c3cc[nH]c(=O)c3c3cc(F)ccc3c2[nH]1 [JAK I]
- cell proliferation (CMK cells [3]): inhibition of cell proliferation
- viability (CMK cells [3]): significant decrease in viability
- apoptosis as measured by annexin V staining (CMK cells [4]): increase in apoptosis
- phosphorylation of STAT5 (STAT5): inhibited phosphorylation
- growth and viability (K562 cells): no significant effect
